Assay results published in patent publication US20090035215A1, “RADIOFLUORINATION” (priority 2006, published 2009).

Assay: TABLE 1
From the text: Table printed on a drawing sheet, TABLE 1
The patent's description of the figure: FIGS. 1A, 1B, 1C, 2A, 2B, 2C, 3A, 3B AND 3C SHOW INTENSITY/RETENTION TIME CURVES FOR VARIOUS PRODUCTS.

SMILES: CC(C)[Si](F)(c1cccc(CCCOC2CCCCO2)c1)C(C)C (racemic) [3d - F]
- % intact after 6 h: > 95%
- t1/2: > 100.0 h

SMILES: CC(C)[Si](F)(c1cccc(CCOC2CCCCO2)c1)C(C)C (racemic) [3e - F]
- % intact after 6 h: > 95%
- t1/2: > 100.0 h

SMILES: CC(C)[Si](F)(c1ccc(CCCO)cc1)C(C)C [4c - F]
- t1/2: > 100.0 h
